Reference: patent publication US9757391B2 (priority 2012, dated 2017)
“Also recorded” adds a separate entry of the source.

Key:
morphine tolerance [1] = conditions: rats, cited from earlier work
morphine tolerance [2] = conditions: in vivo; cited from earlier work
histotoxic hypoxia = format: in vivo; conditions: mouse, 100 mg/kg po; ≧50% indicates significant cerebral protection
mouse [3] = test: General pharmacological screen: maximum tolerated dose, autonomic signs; format: in vivo; conditions: 300 mg/kg po
Description: (§1) A general pharmacological screen was performed on the neuroactive steroid alphadolone.

mouse [4] = test: General pharmacological screen: depression of behaviour; format: in vivo; conditions: 300 mg/kg po
Description: as §1

morphine tolerant rats = conditions: cited from earlier work

## CN1CC[C@]23c4c5ccc(O)c4O[C@H]2[C@@H](O)C=C[C@H]3[C@H]1C5 [M-IR, morphine]
Morphine tolerance [1]; M-IR 6.25 mg/kg ip, after M-SR 125 mg/kg/day sc with vehicle emulsion, mean±SEM, P<0.001
  tail flick latency response to M-IR, after M-SR treatment: 20.3±4.8 % MPE
Morphine tolerance [1]; M-IR 6.25 mg/kg ip, before M-SR treatment, mean±SEM
  tail flick latency response to M-IR, pre treatment: 89.6±2.5 % MPE

## CC(=O)[C@H]1CC[C@H]2[C@@H]3CC[C@H]4C[C@H](O)CC[C@]4(C)[C@H]3CC[C@]12C [allopregnanolone]
Morphine tolerance [2]
  prevention of morphine tolerance: do prevent morphine tolerance

## C[C@]12CC[C@@H](O)C[C@@H]1CC[C@H]1[C@@H]3CC[C@H](C(=O)CO)[C@@]3(C)CC(=O)[C@@H]12 [alphadolone]
Histotoxic hypoxia
  hypoxia KCN test result: result = 50; %
Mouse [3]
  maximum tolerated dose autonomic signs: body temperature: temperature elevation
Mouse [4]
  depression of behaviour: no sedation
Morphine tolerance [1]; alphadolone emulsion 250 mg/kg sc co-administered with M-SR
  occurrence of morphine tolerance (TFL): prevented the occurrence of morphine tolerance; also recorded: no significant tolerance occurred
Morphine tolerance [1]; alphadolone emulsion 250 mg/kg sc with M-SR
  sedation: did not cause sedation; also recorded: caused no sedation

## C[C@]12CC[C@H](O)CC1=CC[C@@H]1[C@@H]2CC[C@]2(C)C(=O)CC[C@@H]12 [dehydrepiandrsterone]
Morphine tolerance [2]
  prevention of morphine tolerance: do prevent morphine tolerance

## CC(=O)[C@H]1CC[C@H]2[C@@H]3CC=C4C[C@@H](O)CC[C@]4(C)[C@H]3CC[C@]12C [pregnenolone]
Morphine tolerance [2]
  prevention of morphine tolerance: do prevent morphine tolerance

## etanercept
Morphine tolerant rats
  microglia activation and proinflammatory cytokine production: inhibited
  morphine tolerance: reversed the morphine tolerance
